Key:
Format in all cases: cell-based
human LAT1 [1] = biological target: T1, human LAT1 (Homo sapiens, UniProt Q01650); assay: Leucine uptake persistence inhibitory effect after compound removal in human-LAT1 highly expressing cell line; conditions: 20 μM compound for 30 minutes, removed, uptake measured 30 minutes later
Protocol: The uptake of [^14C]L-leucine remaining after the compound of the present invention was caused to act in advance and removed in the human-LAT1 highly expressing cell line was examined. In the same manner as in the uptake inhibition test, the cell line was seeded in a 24-well plate, and an MEM (Minimum Essential Medium) medium containing 20 μM of the compound (racemic form) was added to the wells and allowed to act for 30 minutes. An MEM medium containing no compound was used as a control. After the compound was caused to act, the cells were washed 3 times with the MEM medium and cultured in the MEM medium for an additional 30 minutes. Thereafter, washing was performed 3 times with Na^+Free-HBSS, and 1 μM of [^14C]L-leucine dissolved in Na^+Free-HBSS was taken up for 1 minute. The cells were washed 3 times with ice-cooled Na^+Free-HBSS, and the amount of [^14C]L-leucine taken up in the cells was determined with a liquid scintillator. In the same manner as in other tests, the amount of protein in the cell fluid was measured, and the uptake amount of [^14C]L-leucine per 1 mg of protein in the cell fluid per minute was determined.

human LAT1 [2] = biological target: T1, human LAT1; assay: [14C]L-leucine uptake inhibition test using human-LAT1 stably expressing HEK293 cell line; set-up: having full-length cDNA of human LAT1 or LAT2 inserted under a promoter of CMV; expressed in transfected cells; key to Assay Data: degree of [14C]L-leucine uptake inhibition compared with BCH: a test compound having a higher inhibitory effect than BCH is denoted by A; a test compound having the same inhibitory effect as BCH is denoted by B; a test compound having a lower inhibitory effect than BCH is denoted by C; conditions: for Assay Data: degree of [14C]L-leucine uptake inhibition compared with BCH: compound (racemic form) and BCH at 0.1, 1.0, 10 μM, 1 μM [14C]L-leucine, 1 minute, Na+-free HBSS; for LAT1 inhibitory effect, compounds singled out (in words): same test as Table 1
Description: HEK293 cells stably expressing human LAT1 and LAT2 were produced, respectively.
A shuttle vector DNA (LAT1: pcDNA3.1(+) -hLAT1, LAT2: pcDNA3.1(+) -hLAT2; expression vector pcDNA3.1 (+) was produced by Invitrogen Corp.) having ampicillin and neomycin resistance markers and having full-length cDNA of human LAT1 or LAT2 inserted under a promoter of CMV (cytomegalovirus) was constructed. This vector was transfected into the HEK293 cells by a method using Lipofectamine (registered trademark) 2000 (Invitrogen Corp.) according to the manufacturer's instructions. Thereafter, stably expressing cell clones of transgene were selected by a limiting dilution method in the presence of 0.9 mg/mL of Geneticin (registered trademark), and among the obtained cell clones, cell clones having a high uptake of [^14C]L-leucine and maintaining stable expression even after 10 passages were obtained. These cells were used for evaluating affinity and selectivity for LAT1 and LAT2.
1-1. It has been confirmed that LAT1 is responsible for L-leucine uptake in the absence of sodium ions in the human-LAT1 stably expressing HEK293 cell line. The human-LAT1 stably expressing HEK293 cell line was seeded in a 24-well plate at 1×10^5 Cell/Well, and the [^14C]L-leucine uptake inhibition test using the compound was performed after 48 hours. After the medium was removed and the cells were washed with Hank's balanced salt solution (Na^+-free HBSS) not containing sodium ions, the cells were cultured in Na^+-free HBSS for 10 minutes. Thereafter, 1 μM of [^14C]L-leucine was taken up in Na^+-free HBSS in the presence of a test compound (0.1, 1.0, 10, 0 μM in each case), which is a racemic form, for 1 minute, and then the cells were washed three times with ice-cooled Na^+-free HBSS. To the well, 500 μL of 1 M NaOH was added, and after 30 minutes, the cells were lysed, and the cell lysate was collected. The amount of [^14C]L-leucine in the cell lysate was determined using a liquid scintillator. The amount of protein in the cell lysate was measured using BCA Assay Kit (Thermofisher Scientific), and the uptake amount of [^14C]L-leucine per 1 mg of protein in the cell per minute was calculated.
The degree of LAT1 inhibition of the compound obtained in the present invention was compared with BCH (BCH, 2-aminobicyclo-(2,2,1)-heptane-2-carboxylic acid), which is an existing LAT1 inhibitor. In the [^14C]L-leucine uptake inhibition test described above, the degrees of inhibition of [^14C]L-leucine uptake inhibition using the compound (racemic form) obtained in Examples and BCH (0.1, 1.0, 10, 0 μM for both) were compared. […] In the table, a test compound having a higher inhibitory effect than BCH is denoted by A, a test compound having the same inhibitory effect as BCH is denoted by B, and a test compound having a lower inhibitory effect than BCH is denoted by C.

[3] = test system: Mouse colorectal cancer-derived CT26 cells; assay: Cell proliferation inhibitory effect using mouse colorectal cancer cells (CCK-8 assay); conditions: 72 hours compound treatment, read-out: Evaluation of IC50 (proliferation inhibition rate of 50%)
Protocol: Mouse colorectal cancer-derived CT26 cells were adjusted to […], seeded in a 96-well plate at 1000 cells/well, and cultured in a 10% fetal bovine serum-added RPMI 1640 medium at 5% CO2 and 37° C. The culture medium was changed 24 hours after the start of the culture, and the medium containing the compound of Example was replaced to examine the action of the compound on cell proliferation. As the compound, a concentration of 0.01, 0.03, 0.1, 0.3, 1, 3, 10, or 30 μM was used. As a control, the cells were cultured in a medium containing no compound. The number of cells was evaluated by CCK-8 assay (Cell Counting Kit-8, DOJINDO LABORATORIES) 72 hours after the start of the compound treatment, and the compound concentration (IC50 value) giving a proliferation inhibition rate of 50% as compared with the control was calculated.

T1 sequence (Q01650 whole entry): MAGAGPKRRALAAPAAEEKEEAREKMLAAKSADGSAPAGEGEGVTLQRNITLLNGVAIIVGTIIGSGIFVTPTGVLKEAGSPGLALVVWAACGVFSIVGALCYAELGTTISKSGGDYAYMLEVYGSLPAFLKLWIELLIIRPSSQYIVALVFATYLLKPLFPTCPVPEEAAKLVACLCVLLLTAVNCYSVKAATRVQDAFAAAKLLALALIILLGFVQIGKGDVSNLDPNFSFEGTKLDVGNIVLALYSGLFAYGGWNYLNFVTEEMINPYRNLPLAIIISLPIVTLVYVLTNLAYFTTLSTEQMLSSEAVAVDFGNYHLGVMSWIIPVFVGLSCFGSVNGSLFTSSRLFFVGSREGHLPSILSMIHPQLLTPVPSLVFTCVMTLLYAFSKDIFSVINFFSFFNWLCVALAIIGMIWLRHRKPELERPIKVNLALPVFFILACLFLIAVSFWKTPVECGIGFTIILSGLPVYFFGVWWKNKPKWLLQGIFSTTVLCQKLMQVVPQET
T1 sequence (P08195 102-630 partner): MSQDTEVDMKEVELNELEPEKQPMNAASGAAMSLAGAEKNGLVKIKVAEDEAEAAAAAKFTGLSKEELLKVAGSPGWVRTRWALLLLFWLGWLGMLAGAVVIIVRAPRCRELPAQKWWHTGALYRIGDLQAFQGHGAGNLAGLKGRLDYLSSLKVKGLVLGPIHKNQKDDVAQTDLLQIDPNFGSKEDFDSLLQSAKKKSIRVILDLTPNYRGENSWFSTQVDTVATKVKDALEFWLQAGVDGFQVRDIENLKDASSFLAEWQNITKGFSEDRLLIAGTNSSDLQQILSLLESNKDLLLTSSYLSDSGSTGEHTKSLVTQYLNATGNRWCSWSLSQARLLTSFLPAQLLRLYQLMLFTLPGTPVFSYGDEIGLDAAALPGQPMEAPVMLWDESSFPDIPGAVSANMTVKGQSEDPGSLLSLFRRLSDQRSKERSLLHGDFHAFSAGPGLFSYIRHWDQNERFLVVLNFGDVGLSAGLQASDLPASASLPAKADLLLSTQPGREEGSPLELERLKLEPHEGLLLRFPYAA

Cl.NC1(C(=O)O)CCc2ccc(Oc3ccccc3-c3ccc(F)c(Cl)c3)cc2C1 (stereo not drawn) [Example 1-48, 2-carboxy-7-((3′-Chloro-4′-fluoro-[1,1′-biphenyl]-2-yl)oxy)-1,2,3,4-tetrahydronaphthalene-2-aminium chloride]
sustained LAT1 inhibitory effect as compared with Example 1-1 (human LAT1 [1]): more remarkable effect | Assay Data: degree of [14C]L-leucine uptake inhibition compared with BCH (human LAT1 [2]): A | IC50 [3]: ≤ 900 nM

Cl.NC1(C(=O)O)CCc2ccc(Oc3ccccc3-c3cccc(F)c3Cl)cc2C1 (stereo not drawn) [Example 1-49, 2-Carboxy-7-((2′-Chloro-3′-fluoro-[1,1′-biphenyl]-2-yl)oxy)-1,2,3,4-tetrahydronaphthalene-2-aminium chloride]
sustained LAT1 inhibitory effect as compared with Example 1-1 (human LAT1 [1]): more remarkable effect | Assay Data: degree of [14C]L-leucine uptake inhibition compared with BCH (human LAT1 [2]): A | IC50 [3]: ≤ 900 nM

CN(C)c1cccc(-c2ccccc2Oc2ccc3c(c2)CC(N)(C(=O)O)CC3)c1.Cl.Cl (stereo not drawn) [Example 1-50, 2-Carboxy-7-((3′-(Dimethylammonio)-[1,1′-biphenyl]-2-yl)oxy)-1,2,3,4-tetrahydronaphthalene-2-aminium chloride]
sustained LAT1 inhibitory effect as compared with Example 1-1 (human LAT1 [1]): more remarkable effect | Assay Data: degree of [14C]L-leucine uptake inhibition compared with BCH (human LAT1 [2]): A | IC50 [3]: ≤ 900 nM

CSc1cccc(-c2ccccc2Oc2ccc3c(c2)CC(N)(C(=O)O)CC3)c1.Cl (stereo not drawn) [Example 1-52, 2-Carboxy-7-((3′-(methylthio)-[1,1′-biphenyl]-2-yl)oxy)-1,2,3,4-tetrahydronaphthalene-2-aminium chloride]
sustained LAT1 inhibitory effect as compared with Example 1-1 (human LAT1 [1]): more remarkable effect | Assay Data: degree of [14C]L-leucine uptake inhibition compared with BCH (human LAT1 [2]): A | IC50 [3]: ≤ 900 nM

Cl.NC1(C(=O)O)CCc2ccc(Oc3ccccc3-c3cccc(Cl)c3Cl)cc2C1 (stereo not drawn) [Example 1-53, 2-carboxy-7-((2′,3′-dichloro-[1,1′-biphenyl]-2-yl)oxy)-1,2,3,4-tetrahydronaphthalene-2-aminium chloride]
sustained LAT1 inhibitory effect as compared with Example 1-1 (human LAT1 [1]): more remarkable effect | Assay Data: degree of [14C]L-leucine uptake inhibition compared with BCH (human LAT1 [2]): A | LAT1 inhibitory effect, compounds singled out (in words) (human LAT1 [2]): particularly remarkable effects | IC50 [3]: ≤ 900 nM

Cl.NC1(C(=O)O)CCc2ccc(Oc3ccccc3-c3cccc(Cl)c3F)cc2C1 (stereo not drawn) [Example 1-54, 2-carboxy-7-((3′-Chloro-2′-fluoro-[1,1′-biphenyl]-2-yl)oxy)-1,2,3,4-tetrahydronaphthalene-2-aminium chloride]
sustained LAT1 inhibitory effect as compared with Example 1-1 (human LAT1 [1]): more remarkable effect | Assay Data: degree of [14C]L-leucine uptake inhibition compared with BCH (human LAT1 [2]): A | LAT1 inhibitory effect, compounds singled out (in words) (human LAT1 [2]): particularly remarkable effects | IC50 [3]: ≤ 900 nM

Cc1cccc(-c2ccccc2Oc2ccc3c(c2)CC(N)(C(=O)O)CC3)c1F.Cl (stereo not drawn) [Example 1-55, 2-Carboxy-7-((2′-fluoro-3′-methyl-[1,1′-biphenyl]-2-yl)oxy)-1,2,3,4-tetrahydronaphthalene-2-aminium chloride]
sustained LAT1 inhibitory effect as compared with Example 1-1 (human LAT1 [1]): more remarkable effect | Assay Data: degree of [14C]L-leucine uptake inhibition compared with BCH (human LAT1 [2]): A | LAT1 inhibitory effect, compounds singled out (in words) (human LAT1 [2]): particularly remarkable effects | IC50 [3]: ≤ 900 nM

Cc1cccc(-c2ccccc2Oc2ccc3c(c2)CC(N)(C(=O)O)CC3)c1Cl.Cl (stereo not drawn) [Example 1-57, 2-carboxy-7-((2′-Chloro-3′-methyl-[1,1′-biphenyl]-2-yl)oxy)-1,2,3,4-tetrahydronaphthalene-2-aminium chloride]
sustained LAT1 inhibitory effect as compared with Example 1-1 (human LAT1 [1]): more remarkable effect | Assay Data: degree of [14C]L-leucine uptake inhibition compared with BCH (human LAT1 [2]): A | LAT1 inhibitory effect, compounds singled out (in words) (human LAT1 [2]): particularly remarkable effects | IC50 [3]: ≤ 900 nM

Cl.NC1(C(=O)O)CCc2ccc(Oc3ccccc3-c3ccc(F)c(F)c3F)cc2C1 (stereo not drawn) [Example 1-58, 2-carboxy-7-((2′,3′,4′-trifluoro-[1,1′-biphenyl]-2-yl)oxy)-1,2,3,4-tetrahydronaphthalene-2-aminium chloride]
sustained LAT1 inhibitory effect as compared with Example 1-1 (human LAT1 [1]): more remarkable effect | Assay Data: degree of [14C]L-leucine uptake inhibition compared with BCH (human LAT1 [2]): A | LAT1 inhibitory effect, compounds singled out (in words) (human LAT1 [2]): particularly remarkable effects | IC50 [3]: ≤ 900 nM

Cl.NC1(C(=O)O)CCc2ccc(Oc3ccccc3-c3ccc(F)cc3F)cc2C1 (stereo not drawn) [Example 1-59, 2-Carboxy-7-((2′,4′-difluoro-[1,1′-biphenyl]-2-yl)oxy)-1,2,3,4-tetrahydronaphthalene-2-aminium chloride]
sustained LAT1 inhibitory effect as compared with Example 1-1 (human LAT1 [1]): more remarkable effect | Assay Data: degree of [14C]L-leucine uptake inhibition compared with BCH (human LAT1 [2]): A | IC50 [3]: ≤ 900 nM

C=Cc1cccc(-c2ccccc2Oc2ccc3c(c2)CC(N)(C(=O)O)CC3)c1.Cl (stereo not drawn) [Example 1-62, 2-carboxy-7-((3′-vinyl-[1,1′-biphenyl]-2-yl)oxy)-1,2,3,4-tetrahydronaphthalene-2-aminium chloride]
sustained LAT1 inhibitory effect as compared with Example 1-1 (human LAT1 [1]): more remarkable effect | Assay Data: degree of [14C]L-leucine uptake inhibition compared with BCH (human LAT1 [2]): A | IC50 [3]: ≤ 900 nM

Cl.NC1(C(=O)O)CCc2ccc(Oc3ccccc3-c3cc(F)cc(F)c3F)cc2C1 (stereo not drawn) [Example 1-63, 2-carboxy-7-((2′,3′,5′-trifluoro-[1,1′-biphenyl]-2-yl)oxy)-1,2,3,4-tetrahydronaphthalene-2-aminium chloride]
sustained LAT1 inhibitory effect as compared with Example 1-1 (human LAT1 [1]): more remarkable effect | Assay Data: degree of [14C]L-leucine uptake inhibition compared with BCH (human LAT1 [2]): A | LAT1 inhibitory effect, compounds singled out (in words) (human LAT1 [2]): particularly remarkable effects | IC50 [3]: ≤ 900 nM

— patent US20260035339A1, “TETRAHYDRONAPHTHALENE DERIVATIVE” (ATRANSEN PHARMA LTD., priority 2022, published 2026)
